Columns and labels:
[1] = test system: HCT116-S100A4 cells; assay: Boyden chamber invasion assay (Matrigel); assay type: cell-based, human; conditions: 1 μM, 24 h, statistically not significant
Protocol: (§1) HCT116, SW620, LS174T, SW480 and DLD-1 cells were used in cell migration and invasion analysis performed with Boyden chamber assay. 400 μL containing 2.5×10^5 cells were seeded into each transwell chamber with filter membranes of 12.0 μm pore size (Millipore, Schwalbach, Germany). For invasion filter membranes were coated with 50 μL Matrigel (diluted 1:3 in RPMI-1640; BD Biosciences) 10 minutes before cells were seeded. Fresh medium (600 μL) were added to the bottom chamber and cells were allowed to attach to the insets for 15 hours. Both chambers were treated with 1 μM niclosamide or the respective amount of DMSO and incubated at 37° C. and 5% CO2 in a humidified incubator for 24 hours. Afterwards insets were removed and cells that had migrated through the membrane to the lower chamber were trypsinized and counted in a Neubauer chamber (LO-Laboroptik, Bad Homburg, Germany). Each well was counted ten times. Each migration or invasion experiment was performed in duplicate. The average number of migrated or invaded cells was determined for at least three independent experiments.
(§2) (A) Cell migration of HCT116-vector and HCT116-S100A4 cells exposed to niclosamide treatment. Cells were treated with 1 μM niclosamide for 24 hours and migration rates were measured with Boyden chamber assay. (B) Cell invasion of HCT116-vector and HCT116-S100A4 cells exposed to niclosamide treatment. Cells were treated with 1 μM niclosamide for 24 hours and cell invasion was determined by Boyden chamber assay. (C) Directed migration of HCT116-vector and HCT116-S100A4 cells exposed to niclosamide treatment analyzed by wound healing assay. Wounds of 300 μM width were set in a 60% confluent monolayer of HCT116-vector or HCT116-S100A4 cells on day 1. Cells were treated daily with 1 μM niclosamide for 4 days. Microphotographs of day 4 are presented here with black lines indicating margins of entered wound of day 1; scale bar represents 200 μM. Data represents three independent experiments. (D) Adhesive cell proliferation of HCT116-vector and HCT116-S100A4 cells exposed to niclosamide treatment. Cells were treated daily with 1 μM niclosamide and cell viability was determined with MTT assay. (E) Anchorage-independent cell growth of HCT116-vector and HCT116-S100A4 cells exposed to niclosamide treatment. Cells were plated as single cells into 0.33% (w/v) agarose and treatment (solvent or 1 μM niclosamide) containing medium. After 7 days colonies were visualized by light microscopy at 10× (overview) and 40× (single colony) magnification. (F) Quantification of colonies formed. Number of colonies (of more than 4 cells) was counted and normalized to solvent-treated HCT116-vector cells. Differences of niclosamide vs. solvent-treated cells were analyzed by Student's t test. […]

[2] = test system: HCT116-vector cells; assay: Boyden chamber invasion assay (Matrigel); assay type: cell-based, human; conditions: 24 h
Protocol: as §1, §2

## O=C(Nc1ccc([N+](=O)[O-])cc1Cl)c1cc(Cl)ccc1O [niclosamide, 2′,5-dichloro-4′-nitrosalicylanilide]
[1]; solvent control 111.4%
  invasion rate, mean %: 122.5%
[1]
  invasion, mean difference control vs niclosamide: −11.1%
[2]; 1 μM
  invasion, mean difference control vs niclosamide: 69.9%
[2]; Homo sapiens, read-out: number of invaded cells, mean % of control
  activity at 1 µM: 30.1%
